Assay [1] deals with Rattus norvegicus. Nature of the assay: Inhibitory effect of perorally administered compound (0.0005 mg/kg) on gastric lesions induced by ethanol in 10 rats with observed lession index (49.2 mm) was determined. The class given is functional, Stomach.
In assay [2] the test system is Rattus norvegicus. The assay can be described thus: Inhibitory effect of perorally administered compound (0.001 mg/kg) on gastric lesions induced by ethanol in 9 rats with observed lession index (12.1 mm) was determined. The class given is functional, Stomach.
The subject of assay [3] is Rattus norvegicus. Nature of the assay: Inhibitory effect of perorally administered compound (1.0 mg/kg) on gastric lesions induced by ethanol in 6 rats with observed lession index (103.7 mm) was determined. The class given is functional, Stomach.
In assay [4] the test system is Rattus norvegicus. The assay can be described thus: Inhibitory effect of perorally administered compound (1.0 mg/kg) on gastric lesions induced by ethanol in 9 rats with observed lession index (100.5 mm) was determined. The format is functional, Stomach.
The test system of assay [5] is Rattus norvegicus. The assay can be described thus: Inhibitory effect of perorally administered compound (1.0 mg/kg) on gastric lesions induced by ethanol in 9 rats with observed lession index (88.1 mm) was determined. The class given is functional, Stomach.
In assay [6] the test system is Rattus norvegicus. The assay can be described thus: Inhibitory effect of perorally administered compound (1.0 mg/kg) on gastric lesions induced by ethanol in 6 rats with observed lession index (91 mm) was determined. The class given is functional, Stomach.
Assay [7] has as its system Rattus norvegicus. The assay can be described thus: Gastroprotective effect of compound was determined in rats at a concentration of 0.05 mg/kg po. The class given is functional.
Assay [8] deals with Rattus norvegicus. The assay can be described thus: Inhibitory effect of perorally administered compound (0.5 mg/kg) on gastric lesions induced by ethanol in 7 rats with observed lession index (17.1 mm) was determined. The class given is functional, Stomach.
Assay [9] has as its system Rattus norvegicus. The assay can be described thus: Inhibitory effect of perorally administered compound (1.0 mg/kg) on gastric lesions induced by ethanol in 6 rats with observed lession index (8.5 mm) was determined. The format is functional, Stomach.
Assay [10] has as its system Rattus norvegicus. Nature of the assay: Inhibitory effect of perorally administered compound (0.05 mg/kg) on gastric lesions induced by ethanol in 7 rats with observed lession index (120 mm) was determined. The class given is functional, Stomach.
For assay [11], the system named is Rattus norvegicus. The assay can be described thus: Inhibitory effect of perorally administered compound (0.1 mg/kg) on gastric lesions induced by ethanol in 7 rats with observed lession index (90.3 mm) was determined. The class given is functional, Stomach.
Assay [12] relates to Rattus norvegicus. Nature of the assay: Inhibitory effect of perorally administered compound (0.2 mg/kg) on gastric lesions induced by ethanol in 7 rats with observed lession index (62.7 mm) was determined. The class given is functional, Stomach.
In assay [13] the test system is Rattus norvegicus. Nature of the assay: Inhibitory effect of perorally administered compound (1.0 mg/kg) on gastric lesions induced by ethanol in 6 rats with observed lession index (76.4 mm) was determined. The format is functional, Stomach.
Assay [14] relates to Rattus norvegicus. Nature of the assay: Inhibitory effect of perorally administered compound (1.0 mg/kg) on gastric lesions induced by ethanol in 5 rats with observed lession index (68.7 mm) was determined. The class given is functional, Stomach.
The subject of assay [15] is Rattus norvegicus. Nature of the assay: Inhibitory effect of perorally administered compound (0.2 mg/kg) on gastric lesions induced by ethanol in 5 rats with observed lession index (91.3 mm) was determined. The class given is functional, Stomach.
The test system of assay [16] is Rattus norvegicus. The assay can be described thus: Gastroprotective effect of compound was determined in rats at a concentration of 0.1 mg/kg po. The class given is functional.
Assay [17] deals with Rattus norvegicus. The assay can be described thus: Inhibitory effect of perorally administered compound (0.5 mg/kg) on gastric lesions induced by ethanol in 7 rats with observed lession index (4.3 mm) was determined. The format is functional, Stomach.
The subject of assay [18] is Rattus norvegicus. Nature of the assay: Inhibitory effect of perorally administered compound (1.0 mg/kg) on gastric lesions induced by ethanol in 6 rats with observed lession index (0.9 mm) was determined. The class given is functional, Stomach.
Assay [19] relates to Rattus norvegicus. Nature of the assay: Inhibitory effect of perorally administered compound (0.1 mg/kg) on gastric lesions induced by ethanol in 7 rats with observed lession index (95.0 mm) was determined. The class given is functional, Stomach.
Assay [20] concerns Rattus norvegicus. Nature of the assay: Inhibitory effect of perorally administered compound (0.2 mg/kg) on gastric lesions induced by ethanol in 7 rats with observed lession index (50.0 mm) was determined. The class given is functional, Stomach.
The subject of assay [21] is Rattus norvegicus. Nature of the assay: Inhibitory effect of perorally administered compound (0.0125 mg/Kg) on gastric lesions induced by ethanol in 5 rats with observed lession index (129.6 mm) was determined. The class given is functional, Stomach.
Assay [22] concerns Rattus norvegicus. The assay can be described thus: Inhibitory effect of perorally administered compound (0.025 mg/kg) on gastric lesions induced by ethanol in 5 rats with observed lession index (84.8 mm) was determined. The format is functional, Stomach.
In assay [23] the test system is Rattus norvegicus. Nature of the assay: Inhibitory effect of perorally administered compound (0.05 mg/kg) on gastric lesions induced by ethanol in 5 rats with observed lession index (48.8 mm) was determined. The class given is functional, Stomach.
Assay [24] concerns Rattus norvegicus. Nature of the assay: Inhibitory effect of perorally administered compound (0.1 mg/kg) on gastric lesions induced by ethanol in 5 rats with observed lession index (29.1 mm) was determined. The class given is functional, Stomach.
For assay [25], the system named is Rattus norvegicus. The assay can be described thus: Inhibitory effect of perorally administered compound (0.2 mg/kg) on gastric lesions induced by ethanol in 5 rats with observed lession index (12.6 mm) was determined. The format is functional, Stomach.
The test system of assay [26] is Rattus norvegicus. Nature of the assay: Inhibitory effect of perorally administered compound (0.5 mg/kg) on gastric lesions induced by ethanol in 7 rats with observed lession index (0.0 mm) was determined. The class given is functional, Stomach.
Assay [27] deals with Rattus norvegicus. Nature of the assay: Gastroprotective effect of compound was determined in rats at a peroral dose of 0.0125 mg/kg. The format is functional. The note with it: route oral.

Structures are written as SMILES.

A word on the Inhibition: it is the share of the control response that was lost under treatment. Regarding `CCCCC(C)(C)[C@H](O)/C=C/C1[C@H](O)CC(=O)[C@@H]1C/C=C\CCCC(=O)O` (some centres not stated), the Inhibition with Rattus norvegicus [1] is recorded as 64.5%; in the assay with Rattus norvegicus [2], 91.3%.

In the assay on Rattus norvegicus [3], `CC1(C)CCC[C@@]2(C)C1CC=C1COC[C@@H]12` (some centres not stated) displayed an Inhibition of 29.1%.

In the assay with Rattus norvegicus [4], `CC1(C)CCC[C@@]2(C)C1CC=C(CO)[C@@H]2CO` (some centres not stated) came in with an Inhibition of 27.6%.

In the assay on Rattus norvegicus [5], `CC(=O)OCC1=CCC2C(C)(C)CCC[C@]2(C)[C@H]1COC(C)=O` (some centres not stated) gave an Inhibition of 36.5%.

`COC(=O)C1=CCC2C(C)(C)CCC[C@]2(C)[C@H]1C(=O)OC` (some centres not stated) returned an Inhibition with Rattus norvegicus [6] of 37.8%.

One may read the ED50 as the midpoint of the dose-response relation. Compound `CO[C@H]1O[C@@H](OC)[C@H]2C1=CCC1C(C)(C)CCC[C@@]12C` (some centres not stated) displayed a median effective dose (ED50) in the assay with Rattus norvegicus [7] of 0.17 mg/kg. Also, the Inhibition amounted to 87.4% in the assay with Rattus norvegicus [8]; 93.7% in the assay on Rattus norvegicus [9]; 11.5% in the assay on Rattus norvegicus [10]; 33.4% in the assay on Rattus norvegicus [11]; 53.8% in the assay on Rattus norvegicus [12].

In the assay with Rattus norvegicus [13], `CC1(C)CCC[C@@]2(C)C1CC=C(C(=O)O)[C@@H]2C(=O)O` (some centres not stated) displayed an Inhibition of 47.7%.

For the compound `CO[C@@H]1OCC2=CCC3C(C)(C)CCC[C@]3(C)[C@H]21` (some centres not stated), the Inhibition in the assay with Rattus norvegicus [14] is 54.6%; in the assay on Rattus norvegicus [15], 39.6%.

The compound `CO[C@@H]1O[C@@H](OC)[C@H]2C1=CCC1C(C)(C)CCC[C@@]12C` (some centres not stated) gave a 50% effective dose (ED50) in the assay with Rattus norvegicus [16] of 0.15 mg/kg. The Inhibition in the assay on Rattus norvegicus [17] was 96.7%; with Rattus norvegicus [18], 99.3%; with Rattus norvegicus [19] it was 28%; in the assay on Rattus norvegicus [20], 62.1%.

As to `CC1(C)CCC[C@]2(C)[C@@H](C=O)C(C=O)=CC[C@@H]12` [POLYGODIAL], the Inhibition was found to be 23.5% in the assay on Rattus norvegicus [21]; 50% with Rattus norvegicus [22]; 71.2% in the assay with Rattus norvegicus [23]; 82.8% in the assay on Rattus norvegicus [24]; 92.6% in the assay on Rattus norvegicus [25]; 100% in the assay on Rattus norvegicus [26]. For the same compound, in the assay with Rattus norvegicus [27], it took a dose of 0.028 mg/kg to reach the 50% effect level (ED50).

These data come from ChEMBL document CHEMBL1135049, “Protective effects of polygodial and related compounds on ethanol-induced gastric mucosal lesions in rats: structural requirements and mode of action” (2002).
